The target of one data set is T1, cardiac β1-receptors (Rattus norvegicus, UniProt P18090).
T1 construct: in pithed rats (Sprague-Dawley, Mus rattus; weight 230-280 g) causes increases in pulse rate; from tissue; host or cells: heart in the living pithed Sprague-Dawley rat (in vivo)
In words: β1-sympatholytic action: inhibition of Isoproterenol tachycardia, pithed rats. It counts as in vivo, rats (Sprague-Dawley. The conditions noted are these: for β1-Sympatholytic action R.A. (relative activity): Propranolol = 1.00, pithed rats, intravenous; for ED50: rat, iv, 5 min, read-out: β1-Sympatholytic action ED 50 (dose which inhibits the Isoproterenol tachycardia by 50%); for cardiac β1-receptors blocked at doses lower than those required to block β2-receptors / β1-sympatholytic activity greater than that of Propranolol: rats.

Data set [1] has as its target T2, β2-receptors on the blood vessels (Rattus norvegicus, UniProt P10608).
T2 construct: was tested on rats, weighing 230-280 g, under urethane narcosis; from tissue; host or cells: blood vessels in the living rat under urethane narcosis (in vivo)
Description: β2-sympatholytic action: inhibition of Isoproterenol blood pressure reduction, rats under urethane narcosis. The conditions noted are these: for β2-Sympatholytic action R.A. (relative activity): Propranolol = 1.00, intravenous; for Q: quotient defined in footnote 6 (drawing 8), cardioselectivity, β2 versus β1 dose; for ED50: rat, iv, read-out: β2-Sympatholytic action ED 50 (dose which inhibits the Isoproterenol blood pressure reduction by 50%). It counts as in vivo.

A further data set can be described thus: in vivo. The conditions noted are these: mouse; for LD50 at 24 h: ip. As for the experimental part: The acute toxicity was determined on groups of 10 or 20 female Swiss mice weighing 20-26 g, the compounds being administered intraperitoneally.

Each structure is given as a SMILES string. Where a name gives a salt, the structure may show the parent alone.

T2 sequence (P10608 whole entry): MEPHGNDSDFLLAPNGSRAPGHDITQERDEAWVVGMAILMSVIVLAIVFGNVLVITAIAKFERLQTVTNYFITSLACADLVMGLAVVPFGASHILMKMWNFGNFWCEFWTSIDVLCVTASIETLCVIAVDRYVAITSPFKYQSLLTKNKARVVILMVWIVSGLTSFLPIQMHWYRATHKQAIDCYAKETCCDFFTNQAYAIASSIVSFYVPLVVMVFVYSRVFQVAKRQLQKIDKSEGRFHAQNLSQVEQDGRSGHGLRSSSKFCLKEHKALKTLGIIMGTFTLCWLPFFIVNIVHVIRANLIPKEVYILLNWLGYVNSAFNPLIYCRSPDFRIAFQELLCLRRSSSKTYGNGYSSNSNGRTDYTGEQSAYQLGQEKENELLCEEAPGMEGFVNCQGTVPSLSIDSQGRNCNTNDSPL
T1 sequence (P18090 whole entry): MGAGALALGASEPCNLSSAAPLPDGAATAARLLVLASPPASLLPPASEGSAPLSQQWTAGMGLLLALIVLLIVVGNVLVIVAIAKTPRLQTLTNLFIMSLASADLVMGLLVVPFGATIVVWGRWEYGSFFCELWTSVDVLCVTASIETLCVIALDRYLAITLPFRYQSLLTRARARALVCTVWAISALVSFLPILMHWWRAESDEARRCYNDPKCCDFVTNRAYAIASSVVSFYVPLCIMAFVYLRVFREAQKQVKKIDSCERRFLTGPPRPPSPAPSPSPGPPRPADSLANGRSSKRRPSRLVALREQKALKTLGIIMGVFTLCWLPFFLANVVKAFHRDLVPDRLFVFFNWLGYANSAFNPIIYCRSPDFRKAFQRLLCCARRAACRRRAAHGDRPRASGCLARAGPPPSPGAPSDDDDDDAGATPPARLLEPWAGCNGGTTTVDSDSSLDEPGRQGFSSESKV

With `CCCC(C)NCC(O)COc1cccc2sncc12` (stereo not drawn) [Example 35, 4-[2-Hydroxy-3-(pentyl-2-amino)-propoxy]-1,2-benziso-thiazole], at cardiac β1-receptors, the “β1-Sympatholytic action R.A. (relative activity)” value is 4.88, the ED50 turned out to be 2.52 µg/kg and the “cardiac β1-receptors blocked at doses lower than those required to block β2-receptors” value came out at 11 times. For the same molecule, the “β2-Sympatholytic action R.A. (relative activity)” value in data set [1] (rats under urethane narcosis) is on record as 0.42. In data set [1], the Q is recorded as 10.70 and the ED50 was determined as 27 µg/kg. Moreover, in the data set “in vivo”, the “Therapeutic range, relative” value was 2.72; the selectivity ratio was 23900; the median lethal dose (LD50) (usually the dose expected to kill half of the subjects tested) at 24 h was determined as 60.3 mg/kg.

For the molecule `CC(C)NCC(O)c1ccc(O)c(O)c1` (stereo not drawn) [Isoproterenol, reference compound], in data set [1] (Isoproterenol 0.215 μg/kg intravenously, rats under urethane narcosis, average), the “reduction of mean pressure of the carotid artery” value worked out at 30%.

On to `C#CC(C)(C)NCC(O)COc1cccc2sncc12` (stereo not drawn) [Example 27, 4-[2-Hydroxy-3-(2-methyl-but-3-ynyl-2-amino)-propoxy]-1,2-benzisothiazole], for which, on cardiac β1-receptors, the “β1-Sympatholytic action R.A. (relative activity)” value amounted to 5.35 and the ED50 is 2.3 µg/kg. Also, the “β2-Sympatholytic action R.A. (relative activity)” value in data set [1] (rats under urethane narcosis) is reported as 1.98. Besides, in data set [1], the Q is given as 2.50 and the ED50 was 5.75 µg/kg. Moreover, in the data set “in vivo”, the “Therapeutic range, relative” value was found to be 9.11; the selectivity ratio turned out to be 80000; the LD50 at 24 h turned out to be 184 mg/kg.

For `CC(C)(C)NCC(O)COc1cccc2sncc12` (stereo not drawn) [Example 2, 4-(2-hydroxy-3-tert.-butylamino-propoxy)-1,2-benzisothiazole hydrochloride], at cardiac β1-receptors, the “β1-Sympatholytic action R.A. (relative activity)” value came to 7.55 and the ED50 amounted to 1.63 µg/kg. In addition, the “β2-Sympatholytic action R.A. (relative activity)” value in data set [1] (rats under urethane narcosis) is reported as 2.84. For the same molecule, in data set [1], the Q was found to be 2.47 and the ED50 stood at 4.02 µg/kg. For the same molecule, in the data set “in vivo”, the “Therapeutic range, absolute” value is 94,500; the “Therapeutic range, relative” value was 10.76; the LD50 at 24 h was 154 mg/kg.

Regarding `CCC(C)NCC(O)COc1cccc2sncc12` (stereo not drawn) [Example 14, 4-(2-Hydroxy-3-sec.-butylamino-propoxy)-1,2-benzisothiazole], on cardiac β1-receptors, the “β1-Sympatholytic action R.A. (relative activity)” value was 8.04, the ED50 is 1.53 µg/kg and the “β1-sympatholytic activity greater than that of Propranolol” value is given as 8 times. In data set [1] (rats under urethane narcosis), the “β2-Sympatholytic action R.A. (relative activity)” value is on record as 1.08. In addition, in data set [1], the Q came out at 6.93 and the ED50 amounted to 10.6 µg/kg. In addition, in the data set “in vivo”, the “Therapeutic range, relative” value is on record as 7.18; the selectivity ratio was 63000; the LD50 at 24 h stood at 96.4 mg/kg.

As to `CCC(C)(CC)NCC(O)COc1cccc2sncc12` (stereo not drawn) [Example 16, 4-[2-Hydroxy-3-(3-methyl-pentyl-3-amino)-propoxy]-1,2-benzisothiazole], at cardiac β1-receptors, the “β1-Sympatholytic action R.A. (relative activity)” value came out at 3.75 and the ED50 is 3.28 µg/kg. In addition, the “β2-Sympatholytic action R.A. (relative activity)” value in data set [1] (rats under urethane narcosis) turned out to be 0.94. Besides, in data set [1], the Q is reported as 3.69 and the ED50 came out at 12.1 µg/kg. For the same molecule, in “in vivo”, the “Therapeutic range, relative” value was 4.44; the selectivity ratio was determined as 39000; the LD50 at 24 h stood at 128 mg/kg.

For the molecule `CCC(C)(C)NCC(O)COc1cccc2sncc12` (stereo not drawn) [Example 15, 4-[2-Hydroxy-3-(2-methyl-butyl-2-amino)-propoxy]-1,2-benzisothiazole], at cardiac β1-receptors, the “β1-Sympatholytic action R.A. (relative activity)” value amounted to 6.68 and the ED50 was found to be 1.84 µg/kg. Further, the “β2-Sympatholytic action R.A. (relative activity)” value in data set [1] (rats under urethane narcosis) is recorded as 1.38. Moreover, in data set [1], the Q is on record as 4.48 and the ED50 amounted to 8.24 µg/kg. Besides, in “in vivo”, the “Therapeutic range, relative” value worked out at 8.92; the selectivity ratio stood at 78300; the 50% lethal dose (LD50) at 24 h was found to be 144 mg/kg.

For the molecule `COCC(C)NCC(O)COc1cccc2sncc12` (stereo not drawn) [Example 29, 4-[2-Hydroxy-3-(1-methoxy-propyl-2-amino)-propoxy]-1,2-benzisothiazole], at cardiac β1-receptors, the “β1-Sympatholytic action R.A. (relative activity)” value was 2.48, the ED50 came out at 4.95 µg/kg and the “β1-sympatholytic activity greater than that of Propranolol” value was found to be 2.5 times. The “β2-Sympatholytic action R.A. (relative activity)” value in data set [1] (rats under urethane narcosis) is 0.26. Besides, in data set [1], the Q amounted to 8.90 and the ED50 is 44 µg/kg. In addition, in the data set “in vivo”, the “Therapeutic range, relative” value came to 3.11; the selectivity ratio was determined as 27300; the LD50 at 24 h stood at 135 mg/kg.

For `CC(C)NCC(O)COc1cccc2sncc12` (stereo not drawn) [Example 1, 4-(2-hydroxy-3-isopropylaminopropoxy)-1,2-benzisothiazole hydrochloride], at cardiac β1-receptors, the “β1-Sympatholytic action R.A. (relative activity)” value is recorded as 6.47, the ED50 stood at 1.9 µg/kg and the “cardiac β1-receptors blocked at doses lower than those required to block β2-receptors” value is reported as 2 times. The “β2-Sympatholytic action R.A. (relative activity)” value in data set [1] (rats under urethane narcosis) was 2.71. In data set [1], the Q was found to be 2.21 and the ED50 was 4.2 µg/kg. Also, in the data set “in vivo”, the “Therapeutic range, absolute” value is listed as 32,700; the “Therapeutic range, relative” value came out at 3.72; the LD50 at 24 h is 62.1 mg/kg.

The values are drawn from patent US4168317A, “Amino derivatives of 4-hydroxy-1,2-benzisothiazole” (BASF Aktiengesellschaft, priority 1977, dated 1979).
